Patent publication US12685735B2 (Foghorn Therapeutics Inc., priority 2020, dated 2026)

Key:
BRM = BRM (Homo sapiens, UniProt P51531); test: ATPase catalytic activity assay of BRM (ADP-Glo); format: biochemical; details: for IC50: read-out: BRM IC50 (μM)*
Description: (§1) The ATPase catalytic activity of BRM or BRG-1 was measured by the in vitro biochemical assay using ADP-Glo™ (Promega, V9102). The ADP-Glo™ kinase assay is performed in two steps once the reaction is complete. The first step is to deplete any unconsumed ATP in the reaction. The second step is to convert the reaction product ADP to ATP, which will be utilized by the luciferase to generate luminesce and be detected by a luminescence reader, such as Envision.
(§2) Then following addition of 5 μL of ADP-Glo™ Reagent provided in the kit, the reaction incubates at room temperature for 40 minutes. Then 10 μL of Kinase Detection Reagent provided in the kit is added to convert ADP to ATP, and the reaction incubates at room temperature for 60 minutes. Finally, luminescence measurement is collected with a plate-reading luminometer, such as Envision.
as §1, with “The” for “The ATPase catalytic activity of BRM or BRG-1 was measured by the in vitro biochemical assay using ADP-Glo™ (Promega, V9102). The”

BRG-1 = BRG-1 (Homo sapiens, UniProt P51532); test: ATPase catalytic activity assay of BRG-1 (ADP-Glo); format: biochemical; details: ATPase catalytic activity, ADP-Glo; for IC50: read-out: BRG1 IC50 (μM)*; for Emax: read-out: BRG1 Max % Inhibition
BRG-1, sequence (P51532 whole entry): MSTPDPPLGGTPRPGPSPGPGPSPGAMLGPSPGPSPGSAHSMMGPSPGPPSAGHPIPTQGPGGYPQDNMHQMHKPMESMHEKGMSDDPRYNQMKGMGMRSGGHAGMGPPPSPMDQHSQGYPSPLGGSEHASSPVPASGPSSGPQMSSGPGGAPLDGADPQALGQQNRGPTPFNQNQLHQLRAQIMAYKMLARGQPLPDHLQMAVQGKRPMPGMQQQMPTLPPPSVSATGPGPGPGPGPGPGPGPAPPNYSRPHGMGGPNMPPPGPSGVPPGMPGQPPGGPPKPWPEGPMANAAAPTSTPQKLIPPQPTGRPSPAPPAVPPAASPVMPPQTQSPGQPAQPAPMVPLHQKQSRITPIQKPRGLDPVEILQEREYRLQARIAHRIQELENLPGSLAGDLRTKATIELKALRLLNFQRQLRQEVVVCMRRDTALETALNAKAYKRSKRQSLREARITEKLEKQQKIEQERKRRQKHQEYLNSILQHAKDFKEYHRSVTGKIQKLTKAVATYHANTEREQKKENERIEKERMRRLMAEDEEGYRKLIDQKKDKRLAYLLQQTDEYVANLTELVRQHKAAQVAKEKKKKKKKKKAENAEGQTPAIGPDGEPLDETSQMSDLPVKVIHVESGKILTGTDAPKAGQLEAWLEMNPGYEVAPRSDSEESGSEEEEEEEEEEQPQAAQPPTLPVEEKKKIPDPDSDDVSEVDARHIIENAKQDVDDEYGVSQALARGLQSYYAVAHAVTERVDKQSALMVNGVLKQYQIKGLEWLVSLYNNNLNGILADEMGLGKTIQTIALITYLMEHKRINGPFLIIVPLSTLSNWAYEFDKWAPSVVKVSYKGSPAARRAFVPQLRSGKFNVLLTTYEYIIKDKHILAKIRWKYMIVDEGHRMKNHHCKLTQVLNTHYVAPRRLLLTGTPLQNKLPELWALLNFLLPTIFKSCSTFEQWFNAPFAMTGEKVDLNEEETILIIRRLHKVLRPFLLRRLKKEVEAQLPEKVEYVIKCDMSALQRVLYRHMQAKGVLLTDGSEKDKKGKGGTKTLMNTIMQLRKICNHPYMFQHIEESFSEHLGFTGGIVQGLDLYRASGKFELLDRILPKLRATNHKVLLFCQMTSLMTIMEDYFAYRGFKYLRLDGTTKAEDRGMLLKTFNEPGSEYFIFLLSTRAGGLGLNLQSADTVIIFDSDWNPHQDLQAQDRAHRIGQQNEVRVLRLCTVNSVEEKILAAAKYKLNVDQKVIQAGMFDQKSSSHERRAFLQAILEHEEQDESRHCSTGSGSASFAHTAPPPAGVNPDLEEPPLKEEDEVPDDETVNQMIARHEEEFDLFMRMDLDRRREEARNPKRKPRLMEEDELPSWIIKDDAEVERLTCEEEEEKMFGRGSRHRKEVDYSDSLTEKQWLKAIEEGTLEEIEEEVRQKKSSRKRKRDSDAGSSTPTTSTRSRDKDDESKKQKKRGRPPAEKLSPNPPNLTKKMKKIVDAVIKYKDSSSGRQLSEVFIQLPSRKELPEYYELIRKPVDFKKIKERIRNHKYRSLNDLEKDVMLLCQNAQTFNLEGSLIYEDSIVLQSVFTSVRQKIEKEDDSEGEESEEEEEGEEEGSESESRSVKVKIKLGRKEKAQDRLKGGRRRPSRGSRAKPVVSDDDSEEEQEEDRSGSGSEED
Description: as §1, §2
as §1, with “The” for “The ATPase catalytic activity of BRM or BRG-1 was measured by the in vitro biochemical assay using ADP-Glo™ (Promega, V9102). The”

BRM, sequence (P51531 whole entry): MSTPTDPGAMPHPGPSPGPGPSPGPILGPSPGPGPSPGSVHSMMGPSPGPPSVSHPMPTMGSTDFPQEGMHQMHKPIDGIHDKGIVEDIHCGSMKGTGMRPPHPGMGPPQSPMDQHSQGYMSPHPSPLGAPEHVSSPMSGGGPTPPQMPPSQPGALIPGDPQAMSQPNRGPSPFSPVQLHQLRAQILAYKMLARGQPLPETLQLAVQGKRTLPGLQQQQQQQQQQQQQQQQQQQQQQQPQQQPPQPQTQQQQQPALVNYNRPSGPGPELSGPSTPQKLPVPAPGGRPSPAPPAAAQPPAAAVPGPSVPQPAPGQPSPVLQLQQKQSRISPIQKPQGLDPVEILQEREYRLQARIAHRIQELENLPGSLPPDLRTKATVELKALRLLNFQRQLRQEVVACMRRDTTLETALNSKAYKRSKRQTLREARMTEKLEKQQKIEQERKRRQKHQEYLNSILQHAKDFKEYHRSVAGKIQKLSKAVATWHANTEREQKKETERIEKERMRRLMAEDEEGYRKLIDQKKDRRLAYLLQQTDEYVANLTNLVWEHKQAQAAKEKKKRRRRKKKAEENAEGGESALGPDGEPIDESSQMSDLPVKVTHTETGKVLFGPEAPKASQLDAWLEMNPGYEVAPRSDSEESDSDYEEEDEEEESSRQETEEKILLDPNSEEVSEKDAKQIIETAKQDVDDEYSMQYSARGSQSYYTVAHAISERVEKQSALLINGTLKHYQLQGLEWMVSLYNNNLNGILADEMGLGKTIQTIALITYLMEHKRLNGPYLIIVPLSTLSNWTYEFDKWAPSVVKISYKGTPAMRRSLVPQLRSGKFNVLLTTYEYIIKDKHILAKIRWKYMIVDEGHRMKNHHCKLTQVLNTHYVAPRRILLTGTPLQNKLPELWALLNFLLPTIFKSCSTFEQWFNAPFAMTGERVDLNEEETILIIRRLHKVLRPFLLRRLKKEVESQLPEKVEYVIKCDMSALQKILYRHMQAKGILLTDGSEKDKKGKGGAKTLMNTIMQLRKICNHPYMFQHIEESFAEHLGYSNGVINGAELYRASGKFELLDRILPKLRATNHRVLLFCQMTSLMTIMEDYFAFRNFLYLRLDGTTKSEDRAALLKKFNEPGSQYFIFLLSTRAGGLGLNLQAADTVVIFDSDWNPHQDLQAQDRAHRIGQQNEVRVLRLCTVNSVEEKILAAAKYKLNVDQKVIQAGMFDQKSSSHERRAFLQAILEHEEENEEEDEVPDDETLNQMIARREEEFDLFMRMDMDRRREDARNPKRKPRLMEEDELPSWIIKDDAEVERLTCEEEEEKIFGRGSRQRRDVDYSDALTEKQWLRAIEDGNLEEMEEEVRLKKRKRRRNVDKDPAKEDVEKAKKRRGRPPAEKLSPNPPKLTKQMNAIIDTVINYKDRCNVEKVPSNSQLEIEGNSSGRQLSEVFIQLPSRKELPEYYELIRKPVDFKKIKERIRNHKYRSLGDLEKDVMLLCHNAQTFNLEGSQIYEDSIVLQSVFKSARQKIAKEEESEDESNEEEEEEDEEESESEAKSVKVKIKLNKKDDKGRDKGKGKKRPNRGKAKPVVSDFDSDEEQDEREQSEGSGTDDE

Row | Compound | BRM Max % Inhibition (BRM) [%] | IC50 (BRM) [µM] | IC50 (BRG-1) [µM] | Emax (BRG-1) [%]
1 | C[C@@H]1CN(c2cccc(-c3csc(NC(=O)CNC(=O)c4ccc5c(c4)C(F)(C(F)F)COC5)n3)c2)C[C@H](C)O1 (stereo in doubt) [Compound 308, (S)-4-(difluoromethyl)-N-(2-((4-(3-((cis)-2,6-dimethylmorpholino)phenyl)thiazol-2-yl)amino)-2-oxoethyl)-4-fluoroisochromane-6-carboxamide] | >95 | < 0.1 | < 0.1 | > 95
2 | CC(NC(=O)c1ccc2c(c1)[C@](C)(F)COC2)C(=O)Nc1nc(-c2cccc(N3CCC3)c2)cs1 (stereo in doubt) [Compound 319, (S)-N-((R)-1-((4-(3-(azetidin-1-yl)phenyl)thiazol-2-yl)amino)-1-oxopropan-2-yl)-4-fluoro-4-methylisochromane-6-carboxamide] | >95 | < 0.1 | 0.1 to 1 | > 95
3 | COc1cccc(-c2csc(NC(=O)CNC(=O)c3ccc4c(c3)C(C)(F)CCCO4)n2)c1 (stereo in doubt) [Compound 324, (S)-5-fluoro-N-(2-((4-(3-methoxyphenyl)thiazol-2-yl)amino)-2-oxoethyl)-5-methyl-2,3,4,5-tetrahydrobenzo[b]oxepine-7-carboxamide] | >90 | 0.1 to 1 | 0.1 to 1 | > 90
4 | COc1cccc(-c2csc(NC(=O)CNC(=O)c3ccc4c(c3)C(C)(F)CCCO4)n2)c1 (stereo in doubt) [Compound 325, (R)-5-fluoro-N-(2-((4-(3-methoxyphenyl)thiazol-2-yl)amino)-2-oxoethyl)-5-methyl-2,3,4,5-tetrahydrobenzo[b]oxepine-7-carboxamide] | >95 | 0.1 to 1 | 0.1 to 1 | > 95

Next, values leading:

Row | BRM Max % Inhibition (BRM) [%] | IC50 (BRM) [µM] | IC50 (BRG-1) [µM] | Emax (BRG-1) [%] | Compound
5 | >95 | < 0.1 | 0.1 to 1 | > 95 | COCC(NC(=O)c1ccc2c(c1)[C@](C)(F)COC2)C(=O)Nc1nc(-c2cccc(C(F)F)c2)cs1 (stereo in doubt) [Compound 327, (S)-N-((R)-1-((4-(3-(difluoromethyl)phenyl)thiazol-2-yl)amino)-3-methoxy-1-oxopropan-2-yl)-4-fluoro-4-methylisochromane-6-carboxamide]
6 | >95 | < 0.1 | 0.1 to 1 | > 95 | COc1cc(F)cc(-c2csc(NC(=O)C(C)NC(=O)c3ccc4c(c3)[C@](C)(F)COC4)n2)c1 (stereo in doubt) [Compound 334, (S)-4-fluoro-N-((R)-1-((4-(3-fluoro-5-methoxyphenyl)thiazol-2-yl)amino)-1-oxopropan-2-yl)-4-methylisochromane-6-carboxamide]
7 | >95 | 0.1 to 1 | 0.1 to 1 | > 95 | COC(=O)N1CCC[C@@H](c2csc(NC(=O)CNC(=O)c3ccc4c(c3)[C@@](C)(C#N)COC4)n2)C1 (stereo in doubt) [Compound 354, methyl (R)-3-(2-(2-((S)-4-cyano-4-methylisochromane-6-carboxamido)acetamido)thiazol-4-yl)piperidine-1-carboxylate]
8 | >95 | < 0.1 | 0.1 to 1 | > 95 | C[C@@H]1CN(c2cccc(-c3csc(NC(=O)CNC(=O)c4ccc5c(c4)C(C)(CO)COC5)n3)c2)C[C@H](C)O1 (stereo in doubt) [Compound 372, (R)-N-(2-((4-(3-((cis)-2,6-dimethylmorpholino)phenyl)thiazol-2-yl)amino)-2-oxoethyl)-4-(hydroxymethyl)-4-methylisochromane-6-carboxamide]
